Data published in patent US20180338899A1, “INHIBITORS FOR METHYLATION-RELATED ENZYMES HAT1 AND KAT8” (priority 2015, published 2018).

Experiments:
[1] = test system: HLF cells; assay: Cell growth suppression of HLF cells on culture plates; type: cell-based; conditions: 360 μg/L, day 3 and day 7
Procedure: First, HLF cells were cultured on culture plates with RPMI1640 for 7 days. […] In the figures, the “D” denotes days.
Furthermore, rebamipide was added to HLF cells on a culture pate, and the effect on the cells was examined.

[2] = interview form of commercially available medicine; cited from earlier work
[3] = molecular target: T1, HAT1 (Homo sapiens, UniProt O14929); conditions: stated as property of the compound, no test described; cited from earlier work
T1 sequence (O14929 1-419): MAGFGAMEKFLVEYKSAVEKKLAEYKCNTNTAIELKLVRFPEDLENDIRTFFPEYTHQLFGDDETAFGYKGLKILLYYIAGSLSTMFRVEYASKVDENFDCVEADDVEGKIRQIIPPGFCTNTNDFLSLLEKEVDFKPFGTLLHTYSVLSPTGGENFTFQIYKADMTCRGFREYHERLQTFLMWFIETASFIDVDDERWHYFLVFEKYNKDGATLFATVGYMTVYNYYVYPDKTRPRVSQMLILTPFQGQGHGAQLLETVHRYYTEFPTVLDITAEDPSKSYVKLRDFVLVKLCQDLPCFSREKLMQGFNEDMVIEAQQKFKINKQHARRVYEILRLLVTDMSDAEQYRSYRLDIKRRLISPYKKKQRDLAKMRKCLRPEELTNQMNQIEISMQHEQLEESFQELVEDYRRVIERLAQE

[4] = molecular target: T2, KAT8 (Homo sapiens, UniProt Q9H7Z6); conditions: stated as property of the compound, no test described; cited from earlier work
T2 sequence (Q9H7Z6 1-458): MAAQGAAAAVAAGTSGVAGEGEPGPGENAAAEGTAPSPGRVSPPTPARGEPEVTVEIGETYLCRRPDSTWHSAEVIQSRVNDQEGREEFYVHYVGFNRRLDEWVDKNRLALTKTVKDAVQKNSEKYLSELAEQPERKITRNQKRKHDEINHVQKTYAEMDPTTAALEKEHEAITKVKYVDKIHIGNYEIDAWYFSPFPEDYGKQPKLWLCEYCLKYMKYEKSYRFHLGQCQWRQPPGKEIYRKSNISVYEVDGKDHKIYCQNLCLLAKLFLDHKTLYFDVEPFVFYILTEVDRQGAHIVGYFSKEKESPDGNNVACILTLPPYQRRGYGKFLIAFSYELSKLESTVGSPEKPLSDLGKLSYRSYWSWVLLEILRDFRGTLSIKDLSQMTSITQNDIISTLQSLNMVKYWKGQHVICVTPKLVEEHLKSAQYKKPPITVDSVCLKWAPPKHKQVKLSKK

[5] = test system: HLF cells; assay: Cell death and cell growth suppression rate of HLF cells, 3D cell culture spheroid counter Cell3iMager; type: cell-based
Procedure: In addition, chlorpropamide or MG149 was added to HLF cells on culture plates and the cell death and cell growth suppression rate were inspected using a 3D cell culture spheroid counter Cell 3 i Mager (SCREEN, Inc., Kyoto). […] The rows indicate the days of culture and the columns show the kinds and concentrations of the compounds. The concentrations of chlorpropamide were represented in a ratio when the maximum effective blood concentration was set to 1. As the maximum effective blood concentration of chlorpropamide was used 30 µg/ml (which is a value described in the interview form of a commercially available medicine containing chlorpropamide as an active ingredient).

[6] = molecular target: T1, HAT1; assay: FDA library screening (analysis service PLEXERA) and binding strength, HAT1
Source text: (§1) Medicines containing each as an active ingredient (provided that each medicine has an indication other than that for malignant tumors) have already been commercially available.
(§2) Meanwhile, medicines containing each as an active ingredient (provided that each medicine has an indication other than that for malignant tumors) have already been commercially available.

[7] = molecular target: T2, KAT8; assay: FDA library screening (analysis service PLEXERA) and binding strength, KAT8
Source text: as §1, §2

[8] = test system: HAT1; assay: Inhibitory effect of low-molecular-weight compounds on expression of HAT1 by RT-PCR; type: cell-based; conditions: FIG. 6
[9] = test system: KAT8; assay: Inhibitory effect of low-molecular-weight compounds on expression of KAT8 by RT-PCR; type: cell-based; conditions: FIG. 6
[10] = test system: various tumors (cancer and sarcoma types); assay: Drug sensitivity test, anti-tumor effect on various tumors; type: cell-based; conditions: within an effective blood concentration or even at the minimum effective blood concentration or less; values only in FIG. 13
Source text: Moreover, how chlorpropamide exerted an anti-tumor effect on various tumors was investigated. Target tumor types, which are classified into cancer (epithelial malignant tumors), include thyroid cancer, malignant brain tumor, malignant melanoma, lung cancer, gastric cancer, liver cancer, pancreatic cancer, colon cancer, cervical cancer, ovarian cancer, bladder cancer, and neuroblastoma. Target tumor types, which are classified into sarcoma (non-epithelial malignant tumors), include fibrosarcoma and osteosarcoma.
The concentrations of chlorpropamide were represented in a ratio when the maximum effective blood concentration was set to 1 as described above. […] The results mean that chlorpropamide can be used as an effective and safe anti-malignant tumor agent acting on various tumors.

| inhibition of function of HAT1 [6] | inhibition of function of KAT8 [7] | Compound | cell growth suppression effect [1] | maximum effective blood concentration (Cmax) [2] | inhibition of HAT1 [3] | inhibition of KAT8 [4] | cell growth suppression effect ([5]; high concentration (30 μM)) | inhibitory effect on expression of HAT1 [8] | inhibitory effect on expression of KAT8 [9] | cell growth suppression effect ([5]; within an effective blood concentration or even at the minimum effective blood concentration or less) | cell growth suppression effect on various tumors [10] |
| --- | --- | --- | --- | --- | --- | --- | --- | --- | --- | --- | --- |
|  |  | O=C(NC(Cc1cc(=O)[nH]c2ccccc12)C(=O)O)c1ccc(Cl)cc1 (centres unmarked) [Rebamipide, rebamipide] | no cell growth suppression effect | 360 ng/mL | inhibits HAT1 | does not inhibit KAT8 |  |  |  |  |  |
|  |  | CCCCCCCc1ccc(CCc2cccc(O)c2C(=O)O)cc1 [MG149] |  |  | does not inhibit HAT1 | inhibits only KAT8 | failed to elicit a sufficient cell growth suppression effect |  |  |  |  |
| inhibited function of both HAT1 and KAT8 | inhibited function of both HAT1 and KAT8 | CCCNC(=O)NS(=O)(=O)c1ccc(Cl)cc1 [chlorpropamide] |  | 30000 ng/mL |  |  |  | inhibitory effect | inhibitory effect | elicited a cell growth suppression effect | elicited a cell growth suppression effect on each tumor |
